Experimental data: patent publication US8513232B2, “Substituted spirocyclic piperidine derivatives as histamine-3 (H3) receptor ligands” (Cephalon, Inc., priority 2008, dated 2013)
Like-named read-outs stand apart in the source and are kept apart here.

Experiments:
[1] = biological target: T1, rat histamine H3 receptor (Rattus norvegicus, UniProt Q9QYN8); experiment: Rat H3 radioligand binding ([3H]-N-alpha-methylhistamine, SPA)
T1 construct: encoding the entire 445-amino-acid rat histamine H3 receptor; expressed in transfected cells; membrane preparation
Outline: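 Membranes from CHO-A3 cells stably expressing full-length rat H3 receptor (10 μg protein/well) incubated 4 h at room temperature, protected from light, with ~1 nM [3H]-N-alpha-methylhistamine and compound (0.01 nM-30 μM) in 50 mM Tris HCl pH 7.4, 5 mM MgCl2, 0.1% BSA. Binding read by SPA; 10 μM clobenpropit defined non-specific binding.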

human H3 receptor = biological target: T2, human H3 receptor (Homo sapiens, UniProt Q9Y5N1); experiment: Human H3 radioligand binding ([3H]-N-alpha-methylhistamine, SPA)
T2 construct: expressed in transfected cells
Outline: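 SPA competition binding on membranes from CHO cells stably expressing human H3 receptor (10 μg protein/well) with ~1 nM [3H]-N-alpha-methylhistamine and compound at 0.01 nM-30 μM. Incubation 4 h at room temperature in 50 mM Tris-HCl pH 7.4, 5 mM MgCl2, 0.1% BSA; non-specific binding defined with 10 μM clobenpropit.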

[2] = rat H3 binding, Table D, read-out: Rat H3 Ki
[3] = human H3 binding, Table D, read-out: Human H3 Ki
[4] = Rat H3 binding, Table B, Examples 136-362, read-out: rat H3 binding Ki
[5] = Human H3 binding, Table B, Examples 136-362, read-out: hum H3 binding Ki
[6] = Table C, rat H3 binding, read-out: Rat H3 Ki
[7] = Table C, human H3 binding, read-out: Human H3 Ki

T1 sequence (Q9QYN8 whole entry): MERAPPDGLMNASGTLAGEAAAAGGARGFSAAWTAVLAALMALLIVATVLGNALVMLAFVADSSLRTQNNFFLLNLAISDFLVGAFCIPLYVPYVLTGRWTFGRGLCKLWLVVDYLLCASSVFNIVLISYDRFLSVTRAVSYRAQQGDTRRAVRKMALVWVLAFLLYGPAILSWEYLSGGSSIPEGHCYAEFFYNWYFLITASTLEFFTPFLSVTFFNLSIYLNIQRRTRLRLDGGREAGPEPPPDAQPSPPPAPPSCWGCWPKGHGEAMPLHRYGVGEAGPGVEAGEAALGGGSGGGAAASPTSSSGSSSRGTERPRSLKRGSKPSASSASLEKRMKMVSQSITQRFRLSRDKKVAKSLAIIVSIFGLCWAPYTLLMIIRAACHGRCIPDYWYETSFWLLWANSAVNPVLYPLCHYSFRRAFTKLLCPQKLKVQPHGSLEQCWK
T2 sequence (Q9Y5N1 whole entry): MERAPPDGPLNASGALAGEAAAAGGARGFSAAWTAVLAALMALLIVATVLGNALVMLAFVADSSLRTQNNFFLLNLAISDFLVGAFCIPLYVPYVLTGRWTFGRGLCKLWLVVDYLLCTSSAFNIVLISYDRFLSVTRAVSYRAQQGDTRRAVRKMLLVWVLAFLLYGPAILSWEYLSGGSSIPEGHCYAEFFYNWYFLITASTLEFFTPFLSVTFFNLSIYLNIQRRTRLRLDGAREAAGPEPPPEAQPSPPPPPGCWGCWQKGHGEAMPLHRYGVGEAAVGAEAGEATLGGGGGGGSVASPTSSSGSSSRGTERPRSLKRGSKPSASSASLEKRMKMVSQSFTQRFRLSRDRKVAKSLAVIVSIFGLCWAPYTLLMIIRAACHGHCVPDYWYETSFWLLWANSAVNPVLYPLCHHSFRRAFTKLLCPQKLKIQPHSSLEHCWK

SMILES | melting point | Ki [1, 2] [nM] | Ki (human H3 receptor; [3]) [nM] | also measured
CNC(=O)c1cc(-c2ccc3c(c2)CCC2(CCN(C4CCC4)CC2)O3)ccc1Cl [Example 582] | 89 to 91 °C | < 200 | < 200 | –
c1cc2c(cc1C1CCOC1)COC1(CCN(C3CCC3)CC1)O2 (stereo not drawn) [Example 507] | 249 to 250 °C | – | – | Ki ([1]; read-out: Rat H3 kI): < 200 nM; Ki (human H3 receptor; read-out: Human H3 Ki): < 200 nM
N#Cc1ccc(NC(=O)Nc2ccc3c(c2)COC2(CCN(C4CCC4)CC2)O3)cc1 [Example 157] | 170 to 172 °C | – | – | Ki [1, 4]: < 200 nM; Ki (human H3 receptor; [5]): < 200 nM
O=c1[nH]cc(-c2ccc3c(c2)COC2(CCN(C4CCC4)CC2)O3)cc1F [Example 727] | 200 to 202 °C | < 200 | < 200 | –
OC1(c2ccc3c(c2)COC2(CCN(C4CCC4)CC2)O3)CCOC1 (stereo not drawn) [Example 506] | 50 °C | – | – | Ki ([1]; read-out: Rat H3 kI): < 200 nM; Ki (human H3 receptor; read-out: Human H3 Ki): < 200 nM
c1cc(-c2ccc3c(c2)CCC2(CCN(C4CCC4)CC2)O3)cs1 [Example 454] | 110 to 112 °C | – | – | Ki ([1]; read-out: Rat H3 kI): < 200 nM; Ki (human H3 receptor; read-out: Human H3 Ki): < 200 nM
CS(=O)(=O)c1ccc(N2CCN(c3ccc4c(c3)CCC3(CCN(C5CCC5)CC3)O4)CC2)nc1 [Example 383] | 258 to 260 °C | – | – | Ki [1, 6]: < 200 nM; Ki (human H3 receptor; [7]): < 200 nM
Cc1cc(=O)n(C)cc1-c1ccc2c(c1)COC1(CCN(C3CCC3)CC1)O2 [Example 709] | 151 to 154 °C | < 200 | < 200 | –
OCc1ccc(-c2ccc3c(c2)COC2(CCN(C4CCC4)CC2)O3)s1 [Example 641] | 168 to 169 °C | < 200 | < 200 | –
O=c1cc(-c2ccc3c(c2)COC2(CCN(C4CCC4)CC2)O3)c(Cl)c[nH]1 [Example 667] | 130 to 132 °C | < 200 | < 200 | –
c1ccc(OC2CCN(c3ccc4c(c3)CCC3(CCN(C5CCC5)CC3)O4)CC2)cc1 [Example 432] | > 265 °C (dec.) | – | – | Ki [1, 6]: < 200 nM; Ki (human H3 receptor; [7]): < 200 nM
CN(C)C(=O)CCc1ccc2c(c1)CCC1(CCN(C3CCC3)CC1)O2 [Example 603] | 180 to 182 °C | < 200 | < 200 | –
O=C1CCC(c2ccc3c(c2)CCC2(CCN(C4CCC4)CC2)O3)CN1 (stereo not drawn) [Example 534] | 292 to 294 °C | – | – | Ki ([1]; read-out: Rat H3 kI): < 200 nM; Ki (human H3 receptor; read-out: Human H3 Ki): < 200 nM
CS(=O)(=O)c1cncc(-c2ccc3c(c2)COC2(CCN(C4CCC4)CC2)O3)c1 [Example 655] | 148 to 149 °C | < 200 | < 200 | –
O=C(Nc1ccc2c(c1)COC1(CCN(C3CCC3)CC1)O2)c1ccc2[nH]ncc2c1 [Example 338] | 249 to 250 °C | – | – | Ki [1, 4]: < 200 nM; Ki (human H3 receptor; [5]): < 200 nM
c1cnc(Nc2ccc3c(c2)COC2(CCN(C4CCC4)CC2)O3)cn1 [Example 136] | 57 to 61 °C | – | – | Ki [1, 4]: < 200 nM; Ki (human H3 receptor; [5]): < 200 nM
COC1CCN(C(=O)c2ccc(-c3ccc4c(c3)CCC3(CCN(C5CCC5)CC3)O4)cc2)CC1 [Example 230] | 66.8 to 67.5 °C | – | – | Ki [1, 4]: < 200 nM; Ki (human H3 receptor; [5]): < 200 nM
COCCNC(=O)c1ccc(-c2ccc3c(c2)CCC2(CCN(C4CCC4)CC2)O3)cc1 [Example 193] | 158 to 160 °C | – | – | Ki [1, 4]: < 200 nM; Ki (human H3 receptor; [5]): < 200 nM
CN(C)C(=O)N1CCN(c2ccc3c(c2)CCC2(CCN(C4CCC4)CC2)O3)CC1 [Example 392] | 272 to 274 °C | – | – | Ki [1, 6]: < 200 nM; Ki (human H3 receptor; [7]): < 200 nM
O=C1N(c2ccccc2)CCN1c1ccc2c(c1)COC1(CCN(C3CCC3)CC1)O2 [Example 207] | 195 to 197 °C | – | – | Ki [1, 4]: < 200 nM; Ki (human H3 receptor; [5]): < 200 nM
CNC(=O)c1ccc(-c2ccc3c(c2)COC2(CCN(C4CCC4)CC2)O3)cn1 [Example 160] | 208 to 210 °C | – | – | Ki [1, 4]: < 200 nM; Ki (human H3 receptor; [5]): < 200 nM

SMILES | melting point | Ki [1, 2] [nM] | Ki (human H3 receptor; [3]) [nM] | also measured
Cn1cc2c(n1)CCN(c1ccc3c(c1)CCC1(CCN(C4CCC4)CC1)O3)C2 [Example 430] | 132 to 134 °C | – | – | Ki [1, 6]: < 200 nM; Ki (human H3 receptor; [7]): < 200 nM
CC(C)S(=O)(=O)N1CCC(Oc2ccc3c(c2)CCC2(CCN(C4CCC4)CC2)O3)CC1 [Example 440] | 233 to 235 °C | – | – | Ki [1]: < 200 nM; Ki (human H3 receptor): < 200 nM
OC(c1cncnc1)c1ccc2c(c1)COC1(CCN(C3CCC3)CC1)O2 (stereo not drawn) [Example 692] | 57 to 60 °C | < 200 | < 200 | –
CC(C)NC(=O)c1ccc(-c2ccc3c(c2)CCC2(CCN(C4CCC4)CC2)O3)cc1 [Example 302] | 191 to 192 °C | – | – | Ki [1, 4]: < 200 nM; Ki (human H3 receptor; [5]): < 200 nM
CC1CN=C(CCc2ccc3c(c2)COC2(CCN(C4CCC4)CC2)O3)O1 (stereo not drawn) [Example 691] | 61 to 63 °C | < 200 | < 200 | –
COc1ncc(-c2ccc3c(c2)COC2(CCN(C4CCC4)CC2)O3)c(OC)n1 [Example 662] | 250 °C (dec.) | < 200 | < 200 | –
COC(c1ccc2c(c1)COC1(CCN(C3CCC3)CC1)O2)C1CCS(=O)(=O)CC1 (stereo not drawn) [Example 545] | 178 to 180 °C | – | – | Ki ([1]; read-out: Rat H3 kI): < 200 nM; Ki (human H3 receptor; read-out: Human H3 Ki): < 200 nM
C1=C(c2ccc3c(c2)COC2(CCN(C4CCC4)CC2)O3)CCSC1 [Example 466] | 162 to 163 °C | – | – | Ki ([1]; read-out: Rat H3 kI): < 200 nM; Ki (human H3 receptor; read-out: Human H3 Ki): < 200 nM
CN(C)S(=O)(=O)c1ccc(-c2ccc3c(c2)COC2(CCN(C4CCC4)CC2)O3)s1 [Example 654] | 189 to 192 °C | < 200 | < 200 | –
CC(=O)N(Cc1ccsc1)c1ccc2c(c1)COC1(CCN(C3CCC3)CC1)O2 [Example 352] | 101 to 102 °C | – | – | Ki [1, 4]: < 200 nM; Ki (human H3 receptor; [5]): < 200 nM
O=C(C1CC(O)(c2ccc3c(c2)CCC2(CCN(C4CCC4)CC2)O3)C1)N1CCCC1 (stereo not drawn) [Example 569] | 180 to 181 °C | – | – | Ki ([1]; read-out: Rat H3 kI): < 200 nM; Ki (human H3 receptor; read-out: Human H3 Ki): < 200 nM
O=C(c1ccc(-c2ccc3c(c2)COC2(CCN(C4CCC4)CC2)O3)cc1F)N1CCCC1 [Example 41] | 171 to 172.5 °C | – | – | Ki ([1]; Table A, rat H3 binding, read-out: Rat Ki): < 200 nM; Ki (human H3 receptor; Table A, human H3 binding, read-out: Human Ki): < 200 nM
COCc1cc(-c2ccc3c(c2)COC2(CCN(C4CCC4)CC2)O3)c[nH]c1=O [Example 805] | 212 to 214 °C | < 200 | < 200 | –
O=C(NC1CCOCC1)c1ccc(-c2ccc3c(c2)COC2(CCN(C4CCC4)CC2)O3)cn1 [Example 639] | 108 to 110 °C | < 200 | < 200 | –
COc1ccc(-c2ccc3c(c2)COC2(CCN(C4CC(CO)C4)CC2)O3)cn1 (stereo not drawn) [Example 717] | 123 to 125 °C | 200 to 1000 | 200 to 1000 | –
O=C(C1CC1)N1CCC(Oc2ccc3c(c2)CCC2(CCN(C4CCC4)CC2)O3)CC1 [Example 435] | 243 to 245 °C | – | – | Ki [1, 6]: < 200 nM; Ki (human H3 receptor; [7]): < 200 nM
Cn1cc2c(n1)CCC(c1ccc3c(c1)COC1(CCN(C4CCC4)CC1)O3)C2 (stereo not drawn) [Example 469] | 138 to 140 °C | – | – | Ki ([1]; read-out: Rat H3 kI): < 200 nM; Ki (human H3 receptor; read-out: Human H3 Ki): < 200 nM
O=C(Nc1ccc2c(c1)COC1(CCN(C3CCC3)CC1)O2)c1cncs1 [Example 271] | 222 to 224 °C | – | – | Ki [1, 4]: < 200 nM; Ki (human H3 receptor; [5]): < 200 nM
FC1(F)CCN(c2ccc3c(c2)COC2(CCN(C4CCC4)CC2)O3)CC1 [Example 422] | > 250 °C (dec.) | – | – | Ki [1, 6]: 200 to 1000 nM; Ki (human H3 receptor; [7]): < 200 nM
O=C(Nc1ccc2c(c1)CCC1(CCN(C3CCC3)CC1)O2)c1ccns1 [Example 270] | 109 to 111 °C | – | – | Ki [1, 4]: < 200 nM; Ki (human H3 receptor; [5]): < 200 nM
